For data set [1], the system named is C13NJ microglial cell line. Description: C13NJ wound-healing assay (NT-induced cell migration). The settings on record: 10 nM NT in the presence of 1 μM spadin. In kind it is cell-based.
Method: A cell-free zone was created within a semi-confluent monolayer with a pipette tip. We analyzed by time-lapse microscopy how cells repopulated the cell-free zone. The 100% of migrating cells was calculated by stimulation of cell migration with 10% of Fetal Calf Serum (FCS).
A cell-free zone was created within a semi-confluent monolayer of microglial culture by scratching cells off with a pipette tip.
The test system of a further data set is DRN 5-HT neurons. Description: Rat extracellular unitary recordings of DRN 5-HT neurons. Format: in vivo. The settings on record: rats, 10^-5 M in 500 μl bolus i.p. As for the experimental part:
Single-barreled glass micropipettes (recording electrodes) were filled with a 2 M NaCl solution saturated with Fast Green FCF, resulting in an impedance of 2-5 MΩ. Rats were anaesthetized with chloral hydrate (400 mg/kg, i.p., using a 8% solution), and placed in a stereotaxic frame. A burr hole was drilled on the midline 1 mm anterior to lambda. DRN 5-HT neurons were encountered over a distance of 1 mm starting immediately below the ventral border of the Sylvius aqueduct. They were identified using the following criteria: a slow (0.5-2.5 Hz) and regular firing rate and long-duration (0.8-1.2 ms) action potentials, with a positive-negative spike. Spikes were computed by using the Spike 2 software, so that the firing rate was calculated as the mean number of events occurring within a 10 s period. For each neuron, the discharge was monitored during 60 seconds. Each rat received either spadin (10^−5M in a 500 μl bolus) or its vehicle. Starting 30 min after the injection, 2 to 3 successive descents were performed along the DRN, for a total of 8-12 cells recorded per animal. Recordings were performed for a maximal duration of 4 hours post-injection.

The conditions of data set [2]: in vivo. How it is done:
Since spadin exerted efficient effects after i.p. or i.v. administration, we evaluated its ability to pass through the blood-brain barrier. ^125I-labelled spadin (1 nmol of spadin plus 2×10^6 cpm ^125I-spadin) was i.v. injected and animals were sacrificed 30 min following injection. The brains were rapidly removed and homogenized. The radioactivity recovered in the brain was acid-extracted, quantified and analyzed by HPLC. […] The concentration of spadin recovered into the brain was estimated to stand around 10 nM, a concentration that corresponds to the affinity of spadin for TREK-1 and sufficient to be active on TREK-1 channel activity. This value was also in the same range of the IC50 determined by electrophysiological measurements (FIG. 3C).

A further data set deals with CREB. Description: Total CREB and pCREB Western blotting of hippocampus. In kind it is in vivo, mouse. The settings on record: 4-day treatment, i.p. 10^-5 M, hippocampus extracts. How it is done: Mouse brains were dissected on ice. Isolated hippocampi (1-2 mg wet tissue/100 μl) were homogenized in a solubilization buffer containing 20 mM HEPES (pH:7.9), 0.4 M NaCl, 20% (v/v) glycerol, 1% (v/v) Nonidet P-40, 5 mM MgCl2, 0.5 mM EDTA, 0.1 mM EGTA and protease inhibitor cocktail using a dounce homogenizer. The homogenates were centrifuged 30 min at 15,000×g at 4° C. Supernatants were stored at −70° C. until further use. Protein concentrations were measured using conventional Bradford's method. Samples ([…] proteins from each experimental group) were resuspended in SDS buffer, sonicated, boiled for 5 min before loading on 10% SDS PAGE gels and electrophoresed for 2 hours at 60 mA. Proteins were then transferred from gels onto Hybond-PVDF membranes (Amersham Biosciences) in blotting buffer (156 mM Tris, 1 M glycine, PBS) for 90 min at 80 mA and blocked with 5% skim milk (Regilait) in PBS for 2 hours at room temperature. […] Total CREB or tubulin contents were determined after stripping by using 1/1000 dilution of anti-CREB antibody (Cell Signaling Technology) and 1/1000 dilution of anti-tubulin antibody (Sigma-Aldrich). […] Relative intensities of the labeled bands were analyzed by densitometric scanning using Image) imaging system. CREB activation was expressed as the ratio between pCREB and total CREB present in each sample.
Background: Immunoblotting shows a protein as a band on a membrane.

The target of a further data set is T1, TREK-1 (Mus musculus, UniProt P97438).
T1 sequence (P97438 1-426): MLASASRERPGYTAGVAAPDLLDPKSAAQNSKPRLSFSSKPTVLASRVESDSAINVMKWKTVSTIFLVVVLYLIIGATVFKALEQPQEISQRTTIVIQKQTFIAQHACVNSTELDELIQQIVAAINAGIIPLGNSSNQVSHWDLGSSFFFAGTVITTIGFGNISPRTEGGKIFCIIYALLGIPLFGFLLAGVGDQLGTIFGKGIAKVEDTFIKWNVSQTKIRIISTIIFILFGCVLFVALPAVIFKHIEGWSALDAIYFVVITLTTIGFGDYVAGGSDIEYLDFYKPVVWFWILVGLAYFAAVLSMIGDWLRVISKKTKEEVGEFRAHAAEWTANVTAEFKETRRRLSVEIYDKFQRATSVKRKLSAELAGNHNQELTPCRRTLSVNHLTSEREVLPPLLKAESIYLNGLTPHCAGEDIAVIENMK
Briefly: Whole-cell patch-clamp on TREK-1 transfected COS-7 cells. Format: cell-based. The arrangement: GFP; expressed in transfected cells; host or cells: COS-7 (DEAE-dextran transfection). To be noted: after 90 sec of application. As for the experimental part: All electrophysiological experiments were done on COS-7 cells seeded at a density of 20,000 cells/35-mm dish 24 h before transfection. Cells were transfected by the classical DEAE-dextran method with TREK-1-GFP plasmids (0.1 μg/μL). Cells were visualized 48-72 h after transfection using fluorescence.
The whole-cell patch-clamp technique was used to evaluate TREK-1 potassium channel current by using a RK 400 patch-clamp amplifier (Axon Instruments, U.S.A.), as previously described. Currents were lowpass filtered at 3 kHz, digitized at 10 kHz using a 12-bit analog-to-digital converter. […] The bath solution contained (in mM): 150 NaCl, 5 KCl, 3 MgCl2, 1 CaCl2, and 10 HEPES, adjusted to pH 7.4 with NaOH; the patch pipette solution contained (in mM): 155 KCl, 3 MgCl2, 5 EGTA, and 10 HEPES, adjusted to pH 7.2 with KOH. Cells were clamped at −80 mV and voltage changes were either applied by ramp (from −100 to 50 mV, 1 s in duration) or by step (from −100 to 40 mV, 1.5 s in duration). Cells were continuously superfused with a microperfusion system. The pipette capacitance was not subtracted from total membrane capacitance and there was no leak substraction. All experiments were done at room temperature (21° C. to 22° C.) and in the presence of a cocktail of potassium channel inhibitors (K^+ blockers: 10 mM tetraethyl ammonium (TEA), 3 mM 4-aminopyridine (4-AP), 50 nM charybdotoxin, 10 μM glibenclamide, 100 nM apamin).
Pclamp software was used to analyze currents recorded in the whole-cell mode measured at 0 mV. Results are expressed as means±SD. To obtain the IC50 value for dose-dependent inhibition, experimental data were fitted with a standard sigmoidal function.
For orientation: In patch-clamp work, channel activity is measured electrically.

No end group written: not given here.

This is an account of results in US20120322060A1, “DIAGNOSIS AND MONITORING TREATMENT OF PSYCHIATRIC DISEASES WITH SPADIN AND RELATED METHODS” (CENTRE NATIONAL DE LE RECHERCHE SCIENTIFIQUE - CNRS -, priority 2011, published 2012).

APLPRWSGPIGVSWGLR [spadin]: the “migrating cells, % of number migrating with 10% FCS” value in data set [1] is reported as 6.2±1.3%. Besides, in the data set with DRN 5-HT neurons, the “DRN 5-HT neuron firing rate” value turned out to be 2.66±0.36 Hz and the “increase of DRN 5-HT neuron firing rate versus saline” value was determined as 125%. Further, the “amount of spadin recovered in the brain” value in data set [2] is recorded as “Identical amounts”. In the data set on CREB, the “stimulation of pCREB (quantification of blots)” value is 4 fold. Further, on TREK-1, the “inhibition of current increase induced by 10 μM aa” value is “inhibited the aa-induced increase”.
